Measurements: patent US20050228019A1, “Enhancement of ampakine-Induced facilitation of synaptic responses by cholinesterase inhibitors” (priority 2004, published 2005)
“And” between values parts separate entries of the source, which are not always exact repeats. Equal values may be shown once. “Also recorded” adds a separate entry of the source.

How the values were obtained:
[1] = test system: lateral perforant path EPSPs in hippocampal slices; assay: Lateral perforant path EPSPs in hippocampal slices; assay type: cell-based, Sprague-Dawley rats
Method: Hippocamlpal slice preparation: Hippocampal slices were prepared from male Sprague-Dawley rats, approximately 4-6 weeks of age. Rats were anesthetized with halothane and then sacrificed via decapitation. The brain was quickly removed and placed in icy, oxygenated artificial cerebrospinal fluid (ACSF) of the following composition for dissection (in mM): 124 NaCl, 3 KCl 1.25 KH2PO4, 5 MgSO4, 3.4 CaCl2, 10 D-glucose, 26 NaHCO3. A tissue block containing the hippocampus and surrounding tissue was prepared and glued to the stage of a vibrating tissue slicer (Leica VT1000; Bannockburn, Ill.). Slices were cut roughly perpendicular to the longitudinal axis of the hippocampus at a thickness of 350 μm. Slices were then immediately transferred to an interface recording chamber containing ACSF with the same constituents as described above except that the concentration of MgSO4 was lowered to 2.5 mM. Recording commenced after a recovery period that was ≧1 hour.
In vitro recording: Slices in the interface chamber were maintained at 32±1° C. and continuously perfused with oxygenated recording ACSF at a rate of 60 ml/hr. Additionally, warmed and humidified 95% O2/5% CO2 was blown into the chamber from above. The lateral perforant path was stimulated with twisted nichrome wire (65 μm) in the outer molecular layer of the dentate gyrus. A chloride-coated silver wire was placed in a single glass pipette filled with 2 M NaCl (˜5 MΩ resistance) for recording of field potentials. The recording electrode was also placed in the outer molecular layer of the dentate gyrus to sample the perforant path synapses. Stimulation intensity was adjusted to elicit responses that were typically 1-2 mV in amplitude and ≦50% of the maximal monophasic response. Evoked responses were recorded at 10 kHz using a differential AC amplifier (A-M Systems Model 1700; Carlsborg, Wash.). Baseline responses were monitored every 20 seconds for a minimum of 30 minutes, depending on the length of time necessary to achieve stability.
Drug application: AChE inhibitors enhance transmission at cholinergic synapses by blocking the enzyme that degrades the released transmitter acetylcholine. This causes acetylcholine to remain at relatively high concentrations for a longer period within the synapse and thereby exert a greater than normal effect on acetylcholine receptors. This greater than normal action on acetylcholine receptors can be partially mimicked by applying a compound that directly stimulates the receptors to a degree that is greater than that produced by normally released acetylcholine. […] The effect of each of these treatments on amplitude size and slope of the descending phase of the response waveform was continuously recorded online throughout the entirety of the experiment.

[2] = test system: lateral olfactory tract (LOT) evoked responses; assay: Lateral olfactory tract (LOT) evoked responses in awake rats; assay type: in vivo, Long-Evans rats
Method: (§1) Chronic recording preparation: Adult male Long-Evans rats with recording and stimulating electrodes chronically implanted into different areas of the brain known to subserve memory were used. The electrodes were stereotaxically inserted under pentobarbital anesthesia (65 mg/kg), using procedures essentially as described in earlier work (Stäubli and Xu, Journal of Neuroscience 15: 2445-2452, 1995; Stäubli and Scafidi, Journal of Neuroscience 17: 4820-4828, 1997). Briefly, monopolar stimulating electrodes (125 μm) were placed into the perforant path projections to hippocampal dentate gyrus and into the lateral olfactory tract projections to olfactory cortex. Following these steps, the leads of the electrodes were connected to a headstage that is permanently affixed to the rat's skull.
The animals were allowed approximately 10 days for recovery before being acclimated to a chronic recording cage (30×30×58 cm) and the attachment of a recording lead to their headstage. Biphasic stimulation pulses were provided by a digital stimulator that allows precise control of current intensity and pulse duration. Current intensity (10-80 μA) and pulse width (100-150 μsec) were adjusted to produce an evoked field excitatory postsynaptic potential (evoked fEPSP) that is 50-60% of the maximum amplitude of the population spike-free response which typically ranges between 3 and 7 mV. Recording signals were pre-amplified 10× via a FET operational amplifier built into the recording lead and fed into a second stage amplifier set to a gain of 10, with a band-pass of 1 Hz to 5 kHz. The evoked responses were monitored on a storage oscilloscope and digitized at 10 kHz. The peak amplitude, half-width and area of each response were measured on-line and stored on disk for off-line analysis. Baseline evoked EPSPs were tested at 20 sec intervals for a minimum of 30 to 45 min, or until stable (<10% variability in amplitude). The animal was free to move around the cage throughout the experiment, but was not allowed to fall asleep.
Drug Testing: Once baseline stability was established over at least 30 min, the animal was given an intraperitoneal injection of 1) Ampakine compound alone (e.g., CX717 at 10 mg/kg), or 2) acetylcholinesterase (AChE) inhibitor alone (e.g., physostigmine at 0.1 mg/kg, tacrin at 1 mg/kg, galantamine at 1 mg/kg or donezepil at 1.5 mg/kg) or 3) Ampakine compound plus AChE inhibitor combined, both administered at the same time and at the same dose as when given alone. Each rat received each of these three treatments, but only one treatment was given per day, with several days separating successive treatments. The effect of each of these treatments on amplitude size, halfwidth and area of the field EPSP was continuously recorded for several hours after injection.

[3] = test system: perforant path evoked responses in the dentate gyrus; assay: Perforant path evoked responses in the dentate gyrus of awake rats; assay type: in vivo, Long-Evans rats
Method: as §1
(§2) The animals were allowed approximately 10 days for recovery before being acclimated to a chronic recording cage (30×30×58 cm) and the attachment of a recording lead to their headstage. Biphasic stimulation pulses were provided by a digital stimulator that allows precise control of current intensity and pulse duration. […] The evoked responses were monitored on a storage oscilloscope and digitized at 10 kHz. The peak amplitude, half-width and area of each response were measured on-line and stored on disk for off-line analysis. […]

[4] = test system: monosynaptic responses (field EPSPs) known to be mediated by AMPA receptors; assay: Chronic recording of evoked field EPSPs in freely moving rats (brain area not specified); assay type: in vivo, Long-Evans rats; details: CX717 10 mg/kg ip alone
Method: as §1, §2

[5] = CX717 10 mg/kg co-administered ip with physostigmine 0.1 mg/kg

Structure (SMILES) | EPSP amplitude ([1]; CCh 0.5 μM alone, 20-30 minutes after the start of infusion) | effect on lateral perforant path EPSPs (amplitude or slope) ([1]; CCh 0.5 μM by itself) | LOT effect relative to CX717 alone [2, 5] | increase in LOT response amplitude above baseline [2, 5] | LOT effect relative to CX717 alone ([2]; CX717 10 mg/kg co-injected ip with Aricept 1.5 mg/kg) | LOT effect relative to CX717 alone ([2]; CX717 10 mg/kg co-injected ip with tacrine 1 mg/kg) | increase in LOT response amplitude ([2]; CX717 10 mg/kg ip alone, 10 mg/kg) | perforant path effect relative to CX717 alone ([3]; CX717 10 mg/kg co-injected ip with physostigmine 0.1 mg/kg) | increase in perforant path evoked responses on co-administration ([3]; CX717 with galantamine 1 mg/kg, data not shown) | response amplitude ([1]; CX717 40 μM alone, 30 min infusion, last 10 minutes of drug infusion) | increase in response size relative to CX717 alone ([1]; CX717 40 μM in the presence of 0.5 μM CCh) | increase in amplitude of field EPSP [4]
C[N+](C)(C)CCOC(N)=O [CCh, carbachol] | 99.8±2.9 % of baseline | no discernible effects; also recorded: did not detectably affect synaptic transmission; also recorded: did not affect the amplitude or slope of evoked responses | – | – | – | – | – | – | – | – | – | –
O=C(c1ccc2nonc2c1)N1CCOCC1 [CX717] | – | – | several times greater than the effects it produced on its own; also recorded: approximately three-fold greater | 20-30% | several times greater than the effects it produced on its own; also recorded: approximately two-fold greater | several times greater than the effects it produced on its own; also recorded: more than two times greater | ~5% and < 10% | significantly higher than the effects of CX717 alone | Effects of this kind were also obtained | 103.5±1.0 % of baseline | several fold greater; also recorded: significantly greater than those observed in the absence of CCh | 5+1%
